Consider 3 molecules from PubChem BioAssay AID2694 (The Scripps Research Institute Molecular Screening Center, 2010).

The target of this assay is Mucolipin-3 (Homo sapiens) (UniProt Q8TDD5). Put plainly: whole-cell currents from mucolipin-3 agonists – HEK293, whole-cell patch clamp, -80 mV, orthogonal assay, late-stage follow-up (AID 2694). The conditions noted are these: HEK293 TRPML3, whole-cell patch clamp current; at 10 µM; hits give low values. For orientation: The patch-clamp technique gives a direct electrical read-out from membranes.
Chain of Mucolipin-3 (Homo sapiens) (Q8TDD5 whole entry, looked up): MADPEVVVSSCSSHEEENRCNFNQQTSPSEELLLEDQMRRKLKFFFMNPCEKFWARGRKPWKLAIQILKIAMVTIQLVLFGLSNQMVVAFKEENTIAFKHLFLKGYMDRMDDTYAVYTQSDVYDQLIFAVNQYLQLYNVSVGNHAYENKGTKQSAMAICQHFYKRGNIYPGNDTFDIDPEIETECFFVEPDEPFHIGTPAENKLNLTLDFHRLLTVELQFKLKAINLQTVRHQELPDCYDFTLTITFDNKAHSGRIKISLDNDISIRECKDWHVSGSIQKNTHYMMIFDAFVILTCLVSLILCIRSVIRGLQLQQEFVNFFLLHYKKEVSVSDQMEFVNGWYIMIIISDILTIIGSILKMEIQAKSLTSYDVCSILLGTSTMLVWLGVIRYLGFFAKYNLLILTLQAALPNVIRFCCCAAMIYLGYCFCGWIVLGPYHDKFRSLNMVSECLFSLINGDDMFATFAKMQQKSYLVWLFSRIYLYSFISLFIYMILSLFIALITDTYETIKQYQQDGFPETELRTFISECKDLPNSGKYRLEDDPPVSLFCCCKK

As for `CC1CCN(S(=O)(=O)c2ccc(C(C)C)cc2)CC1`, the current density at -80 mV was -0.02 nA/pF.
As for `Cc1ccc(S(=O)(=O)n2nccc2-c2c(-c3ccc(Cl)cc3)noc2C)cc1`, the current density at -80 mV was -0.14 nA/pF.
Regarding `CCOc1ccc(S(=O)(=O)N2CCCCCC2)c2ccccc12`, the current density at -80 mV was -0.19 nA/pF.
